13 molecules from PubChem BioAssay (NCI) can be followed below.

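Cultured in 96-well plates, cells were exposed to test compound for 48 hours across five concentrations. GI50 marks 50% less growth. TGI marks complete inhibition of growth.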

Among the test systems are KM12 colon; UO-31 renal; IGROV1 ovarian; NCI-H460 lung; HL-60(TB) leukemia; ACHN renal; UACC-62 melanoma; MOLT-4 leukemia; A498 renal.
Test in all cases: DTP human tumour cell line panel, 48 h

Take `COc1ccc(OC)c(/C=N/N=C(\N)NO)c1`: the TGI – broadly, the concentration giving total growth inhibition – was more than 100 µM in the assay with KM12 colon; 60.3 µM with UO-31 renal; more than 100 µM in the assay on IGROV1 ovarian; more than 100 µM in the assay with NCI-H460 lung; more than 100 µM with HL-60(TB) leukemia; 81.4 µM with ACHN renal. Also, in the assay with UACC-62 melanoma, the total growth inhibition concentration (TGI) is 26.9 µM.
`CC(=O)[CH-]C(=O)c1ccccc1.CC(=O)[CH-]C(=O)c1ccccc1.O=S(=O)([O-])c1cc([O-])c2c([O-])cc(S(=O)(=O)[O-])cc2c1.[Na+].[Zr+4]`: the GI50 (as a rule, the concentration that inhibits growth by half) in the assay on KM12 colon was more than 100 µM; in the assay on UO-31 renal it was more than 100 µM; in the assay on IGROV1 ovarian, more than 100 µM; in the assay with NCI-H460 lung it was 94.1 µM; with HL-60(TB) leukemia, more than 100 µM; in the assay with MOLT-4 leukemia, 40.8 µM. Moreover, the GI50 in the assay on ACHN renal, in the assay on UACC-62 melanoma and in the assay with A498 renal was more than 100 µM throughout. Also, the concentration for total growth inhibition (TGI) in the assay on KM12 colon, in the assay on UO-31 renal, with IGROV1 ovarian, in the assay with NCI-H460 lung, with HL-60(TB) leukemia and in the assay with MOLT-4 leukemia was more than 100 µM throughout. In addition, the concentration for total growth inhibition (TGI) in the assay on ACHN renal, in the assay on UACC-62 melanoma and in the assay on A498 renal was more than 100 µM each time.
With `Cc1nc2c(o1)C(=Nc1ccccc1)c1nc(C)oc1C2=Nc1ccccc1`, the total growth inhibition concentration (TGI) with UO-31 renal was 35.1 µM; in the assay with IGROV1 ovarian it was 52.1 µM; in the assay with NCI-H460 lung it was more than 100 µM; with HL-60(TB) leukemia, more than 100 µM; with MOLT-4 leukemia, 72.6 µM; in the assay on ACHN renal it was 33.6 µM. In addition, the figures for the TGI in the assay on UACC-62 melanoma and with A498 renal were 39.4 µM and 3.01 µM, respectively.
`COC1OC2COC(C)(C)OC2C(OC(C)=O)C1NC(=O)N(CCCl)N=O` (stereo not given): the total growth inhibition concentration (TGI) in the assay with KM12 colon is more than 100 µM; with IGROV1 ovarian, more than 100 µM; in the assay with NCI-H460 lung, more than 100 µM; in the assay on HL-60(TB) leukemia it was 53.3 µM; in the assay on MOLT-4 leukemia, more than 100 µM; in the assay with ACHN renal, more than 100 µM. For the same molecule, the TGI in the assay on UACC-62 melanoma and with A498 renal was more than 100 µM in each case.
`Cc1cc(=O)n(-c2cc3cccccc-3n2)[nH]1`: the TGI in the assay with KM12 colon is 91.5 µM; in the assay on UO-31 renal, 48.3 µM; in the assay on IGROV1 ovarian it was 8.45 µM; in the assay with NCI-H460 lung, 16.1 µM; in the assay with HL-60(TB) leukemia, 11.6 µM; in the assay on MOLT-4 leukemia it was more than 100 µM. For the same molecule, the TGI was found to be 50.3 µM in the assay with ACHN renal, 7.61 µM in the assay with UACC-62 melanoma and 46.9 µM in the assay with A498 renal.
With `CC(=O)[C@H]1CCC2[C@@H]3CC=C4C[C@@H]([O-])CC[C@]4(C)C3CC[C@@]21C.CC(=O)[C@H]1CCC2[C@@H]3CC=C4C[C@@H]([O-])CC[C@]4(C)C3CC[C@@]21C.CC(=O)[CH-]C(=O)c1ccccc1.CC(=O)[CH-]C(=O)c1ccccc1.Cl.[Ti+4]` (stereo not given in full), the GI50 with KM12 colon was 26.4 µM; with UO-31 renal, 28.9 µM; in the assay on IGROV1 ovarian, 25.9 µM; in the assay with NCI-H460 lung, 13.9 µM; in the assay on HL-60(TB) leukemia, 4.64 µM; in the assay with MOLT-4 leukemia it was 38.1 µM. The GI50 was 22.8 µM in the assay with ACHN renal, 15.8 µM with UACC-62 melanoma and 12.8 µM with A498 renal. Moreover, the TGI in the assay with KM12 colon was more than 100 µM; with UO-31 renal it was 79.3 µM; in the assay with IGROV1 ovarian, 87.1 µM; with NCI-H460 lung, 52.6 µM; in the assay on HL-60(TB) leukemia it was more than 100 µM; with MOLT-4 leukemia, more than 100 µM. Besides, the total growth inhibition concentration (TGI) amounted to 99.1 µM in the assay on ACHN renal, 56.9 µM in the assay with UACC-62 melanoma and 27 µM in the assay with A498 renal.
In the case of `CN(/N=C/c1ccnc2ccccc12)c1c([N+](=O)[O-])cc([N+](=O)[O-])cc1[N+](=O)[O-]`, the TGI with KM12 colon is more than 100 µM; in the assay with UO-31 renal it was more than 100 µM; with IGROV1 ovarian it was more than 100 µM; with NCI-H460 lung, more than 100 µM; with HL-60(TB) leukemia it was 61.2 µM; with MOLT-4 leukemia, more than 100 µM. For the same molecule, the TGI in the assay on ACHN renal, with UACC-62 melanoma and with A498 renal was more than 100 µM in each case.
Turning to `O=C(/C=C\c1cccc2ccccc12)c1ccc(Cl)cc1Cl`, the TGI in the assay on KM12 colon was 31 µM; with UO-31 renal, more than 100 µM; in the assay with IGROV1 ovarian, more than 100 µM; in the assay on NCI-H460 lung it was 51.6 µM; with HL-60(TB) leukemia, 41.1 µM; in the assay with MOLT-4 leukemia, 63.9 µM. The TGI in the assay with ACHN renal was 32.6 µM; with UACC-62 melanoma, 34 µM; in the assay on A498 renal, more than 100 µM.
Consider `Cc1cc(C)c(-c2noc(-c3ccc(Cl)cc3)c2C2=NCCCN2)c(C)c1`, for which the TGI in the assay on KM12 colon is more than 100 µM; with UO-31 renal, more than 100 µM; with IGROV1 ovarian it was more than 100 µM; with NCI-H460 lung, 28.8 µM; with HL-60(TB) leukemia it was 48.7 µM; in the assay with MOLT-4 leukemia, 41.7 µM. Further, the results for the TGI in the assay with ACHN renal and with UACC-62 melanoma were more than 100 µM and 40.7 µM, respectively.
For the molecule `COC(=O)C1=CC2C=CC(C1C(=O)OC)C1C(C(=O)OC)=C(C(=O)OC)C(C(=O)OC)=C(C(=O)OC)C21OC` (stereo not given), the total growth inhibition concentration (TGI) in the assay with UO-31 renal, with IGROV1 ovarian, with NCI-H460 lung, in the assay on HL-60(TB) leukemia, with MOLT-4 leukemia and in the assay with ACHN renal was more than 100 µM each time. Moreover, the total growth inhibition concentration (TGI) in the assay with UACC-62 melanoma and with A498 renal was more than 100 µM in each case.
Turning to `COc1cc(/C=N/N=C(\N)NO)c(Cl)cc1O`, the TGI with KM12 colon, in the assay on UO-31 renal, in the assay on IGROV1 ovarian, with MOLT-4 leukemia, in the assay on ACHN renal and with UACC-62 melanoma was more than 100 µM each time. Further, the concentration for total growth inhibition (TGI) in the assay on A498 renal was more than 100 µM.
Consider `O=C1c2ccccc2C2CCC1c1ccccc12` (stereo not given), for which the concentration for total growth inhibition (TGI) with KM12 colon was more than 100 µM; in the assay on UO-31 renal it was 70.5 µM; in the assay with IGROV1 ovarian, more than 100 µM; in the assay with NCI-H460 lung it was more than 100 µM; in the assay on HL-60(TB) leukemia, 38 µM; in the assay on MOLT-4 leukemia it was 45.7 µM. Moreover, the concentration for total growth inhibition (TGI) in the assay with ACHN renal, in the assay on UACC-62 melanoma and in the assay on A498 renal was more than 100 µM throughout.
As to `CN(/N=C\c1ccnc2ccccc12)c1ccc([N+](=O)[O-])cc1`, the TGI in the assay on KM12 colon, with IGROV1 ovarian, in the assay with HL-60(TB) leukemia, in the assay on MOLT-4 leukemia, in the assay on ACHN renal and in the assay on UACC-62 melanoma was more than 100 µM each time. In the assay on A498 renal, the TGI was more than 100 µM.
